From patent publication US9284325B2, “Spectinamides as anti-tuberculosis agents” (UNIVERSITY OF TENNESSEE RESEARCH FOUNDATION, priority 2009, dated 2016)
Structures can show the parent of a compound that is named as a salt.

Test system: M. tuberculosis drug-resistant strains and mutants
Type: cell-based, Mycobacterium tuberculosis

Structure (SMILES): CN[C@@H]1[C@H](O)[C@H](NC)C2O[C@]3(O)C(OC2[C@H]1O)O[C@H](C)C[C@H]3NC(=O)Cc1ccccn1 (stereo partly drawn) [Compound 1329, 3′-Dihydro-3′-deoxy-4(R)-(pyridin-2yl)acetylamino spectinomycin Dihydrochloride]
- cross resistance with first-line TB drugs isoniazid, rifampicin and ethambutol: no cross resistance
- susceptibility of spontaneous streptomycin mutants incl. ATCC 35820: highly susceptible
- Activity (MIC) of 1329 compared to streptomycin (Dihydrochloride): >200
